Data from patent publication US20130253202A1, “METHOD OF TREATING HEMATOLOGICAL CANCERS” (Niiki Pharma Inc., priority 2010, published 2013).

Experiments:
MV4-11 cells [1] = settings: Colado et al. 2008, Scatena et al. 2010; cited from earlier work
WSU-DLCL2 cells [2] = settings: Aref et al. 1999, Levi et al. 2010; cited from earlier work
MV4-11 cells [3] = assay: Anti-proliferation assay (Cell Titer-Glo) in MV4-11 human leukemia cells; format: cell-based
Experimental: The human leukemia cell line MV4-11 cells [biphenotypic B myelomonocytic leukemia, lymphoblast morphology] were placed in a 96-well microculture plate (Costar white, flat bottom #3917) in a total volume of 90 μL/well. After 24 hours of incubation in a humidified incubator at 37° C. with 5% CO2 and 95% air, 10 μL of 10X, serially diluted sodium trans-[tetrachlorobis(1H-indazole)ruthenate(III)] in growth medium was added to each well. After 96 total hours of culture in a CO2 incubator, the plated cells and Cell Titer-Glo (Promega #G7571) reagents were brought to room temperature to equilibrate for 30 minutes. 100 μL of Cell Titer-Glo® reagent was added to each well. The plate was shaken for 2 minutes and then left to equilibrate for 10 minutes before reading luminescence on the Tecan GENios microplate reader. Percent inhibition of cell growth was calculated relative to untreated control wells. All tests were performed in duplicate at each concentration level. The IC50 value for the test agent was estimated using Prism 3.03 by curve-fitting the data using the following four parameter-logistic equation: […]

DoHH2 cells = assay: Anti-proliferation assay (Cell Titer-Glo) in DoHH2 follicular lymphoma cells; format: cell-based, human; settings: 96 total hours of culture, read-out: IC50 in DoHH2 (inhibition of cell growth)
Experimental: (§1) To determine the antiproliferative activity of sodium trans-[tetrachlorobis(1H-indazole)ruthenate(III)] in human lymphoma tumor cell lines, anti-proliferation assays were conducted in the DoHH2 (follicular lymphoma), Granta 519 (mantle cell lymphoma), and WSU-DLCL2 (diffuse large B cell lymphoma) cell lines. The DoHH2 Human EBV-negative B Cell Lymphoma cells were seeded with 5,000 cells/well and grown in RPMI1640 medium containing 20% FBS, and 2mM L-Glutamine. The Granta 519 Human Mantle Cell Lymphoma cells were seeded with 10,000 cells/well and grown in DMEM medium containing 10% FBS, and 2 mM L-Glutamine. The WSU-DLCL2 Human B Cell Lymphoma cells were seeded with 5,000 cells/well and grown in RPMI1640 medium containing 10% FBS, and 2mM L-Glutamine. Specifically, the human tumor cells were placed in a 96-well microculture plate at the appropriate density for 96 hours of total growth time. After 24 hours of incubation in a humidified incubator at 37° C. with 5% CO2 and 95% air, serially diluted test agents in growth medium were added to each well. After 96 total hours of culture in a CO2 incubator, the plates were processed with Cell Titer-Glo (Promega #G7571) according to manufacturer's instructions. Luminescence was detected using a Tecan GENios microplate reader. Percent inhibition of cell growth was calculated relative to untreated control wells. […]

Granta 519 cells = assay: Anti-proliferation assay (Cell Titer-Glo) in Granta 519 mantle cell lymphoma cells; format: cell-based, human; settings: 96 total hours of culture, read-out: IC50 in Granta 519 (inhibition of cell growth)
Experimental: as §1

WSU-DLCL2 cells [4] = assay: Anti-proliferation assay (Cell Titer-Glo) in WSU-DLCL2 diffuse large B cell lymphoma cells; format: cell-based, human; settings: 96 total hours of culture, read-out: IC50 in WSU-DLCL2 (inhibition of cell growth)
Experimental: as §1

For `Nc1ccn([C@@H]2O[C@H](CO)[C@@H](O)[C@@H]2O)c(=O)n1` [Ara-C, cytarabine], the “resistance of MV4-11 cells to the drug” value (MV4-11 cells [1]) is given as “resistant”.

In the case of `COc1cccc2c1C(=O)c1c(O)c3c(c(O)c1C2=O)C[C@@](O)(C(=O)CO)C[C@@H]3O[C@H]1C[C@H](N)[C@H](O)[C@H](C)O1` [doxorubicin], the “resistance of MV4-11 cells to the drug” value (MV4-11 cells [1]) is given as “resistant” and the “resistance of WSU-DLCL2 cells to the drug” value (WSU-DLCL2 cells [2]) is given as “resistant”.

For `N[C@@H](Cc1ccc(N(CCCl)CCCl)cc1)C(=O)O` [melphalan], the “resistance of WSU-DLCL2 cells to the drug” value (WSU-DLCL2 cells [2]) is listed as “resistant”.

With `[Cl][Ru-]([Cl])([Cl])[Cl].[Na+].c1ccc2[nH]ncc2c1.c1ccc2[nH]ncc2c1` [sodium trans-[tetrachlorobis(1H-indazole)ruthenate(III)]] the IC50 (MV4-11 cells [3]; 96 total hours of culture, compound added after 24 hours, Cell Titer-Glo, read-out: IC50 on MV4-11 (inhibition of cell growth)) was 8.53 µM, the “inhibition of proliferation of MV4-11 cells (FIG. 1), dose-dependent maximum” value (MV4-11 cells [3]; exposure time 24 hours, % of control) was “up to 100%” and the IC50 (DoHH2 cells) was 7.18 µM. For the same compound, the IC50 (Granta 519 cells) was 63.6 µM and the IC50 (WSU-DLCL2 cells [4]) was 25 µM.
